Literature values in patent publication US12258594B2, “Cas proteins with reduced immunogenicity and methods of screening thereof” (THE BROAD INSTITUTE, INC., priority 2018, dated 2025).

System: Factor VII
Conditions: LNP siRNA systems containing the lipid; hepatocytes in vivo

| Molecule | gene silencing potencies, series (rank order) |
| --- | --- |
| 1,2-dilinoleyloxy-keto-N,N-dimethyl-3-aminopropane [DLinKDMA] | DLinKC2-DMA>DLinKDMA>DLinDMA>>DLinDAP |
| CCCCC/C=C\C/C=C\CCCCCCCC(=O)OCC(CN(C)C)OC(=O)CCCCCCC/C=C\C/C=C\CCCCC (stereo not shown) [DLinDAP, 1,2-dilineoyl-3-dimethylammonium-propane] | DLinKC2-DMA>DLinKDMA>DLinDMA>>DLinDAP |
| CCCCC/C=C\C/C=C\CCCCCCCCOCC(CN(C)C)OCCCCCCCC/C=C\C/C=C\CCCCC (stereo not shown) [DLinDMA, 1,2-dilinoleyloxy-3-N,N-dimethylaminopropane] | DLinKC2-DMA>DLinKDMA>DLinDMA>>DLinDAP |
| CCCCC/C=C\C/C=C\CCCCCCCCC1(CCCCCCCC/C=C\C/C=C\CCCCC)OCC(CCN(C)C)O1 (stereo not shown) [DLinKC2-DMA, 1,2-dilinoleyl-4-(2-dimethylaminoethyl)-[1,3]-dioxolane] | DLinKC2-DMA>DLinKDMA>DLinDMA>>DLinDAP |

System: target sites with PAM
Conditions: AsCpf1 and variants

| Molecule | PAM of target sites that can be cleaved |
| --- | --- |
| AsCpf1: Acidaminococcus sp. BV3L6 Cpf1 | TTTV |
| S542R/K548V/N552R: AsCpf1 variant with the mutations S542R/K548V/N552R | TATV |
| S542R/K607R: AsCpf1 variant with the mutations S542R/K607R | TYCV/CCCC |

Same assay, conditions: in vitro and in human cells

| Molecule | activities at the altered PAMs |
| --- | --- |
| S542R/K548V/N552R: AsCpf1 variant with the mutations S542R/K548V/N552R | enhanced activities |
| S542R/K607R: AsCpf1 variant with the mutations S542R/K607R | enhanced activities |

System: dystrophin gene exon 51
Conditions: across 48 weeks

| Molecule | average dystrophin positive fibers compared to baseline [%] |
| --- | --- |
| eteplirsen | 47 |

System: target DNA
Conditions: AsCpf1 mutants

| Molecule | DNA cleavage activity |
| --- | --- |
| 51228A: mutant of Ser1228 of AsCpf1 | comparable to that of wild-type AsCpf1 |
| D908A: D908A mutant of AsCpf1 | almost no activity |
| D1235A: D1235A mutant of AsCpf1 | reduced activity |
| D1263A: D1263A mutant of AsCpf1 | significantly reduced activity |
| E993A: E993A mutant of AsCpf1 | almost no activity |
| G783P: G783P mutant of AsCpf1 | reduced activities |
| K548A: K548A mutant of AsCpf1 | reduced activities |
| K607A: K607A mutant of AsCpf1 | almost no activity |
| M604A: M604A mutant of AsCpf1 | reduced activities |
| R176A: R176A mutant of AsCpf1 | reduced activities |
| R192A: R192A mutant of AsCpf1 | reduced activities |
| R951A: R951A mutant of AsCpf1 | reduced activities |
| R1226A: R1226A mutant of AsCpf1 | almost no activity |
| W382A: W382A mutant of AsCpf1 | reduced activity |

Same assay, conditions: AsCpf1 mutants, target and non-target strand

| Molecule | DNA strand cleaved |
| --- | --- |
| R1226A: R1226A mutant of AsCpf1 | acts as a nickase that cleaves the non-target DNA strand, but not the target strand |
